This data set in a line: Hygroscopicity test (water content change with time under 30% humidity). Format: physicochemical. The settings on record: for hygroscopicity (result in words): humidity condition of 30% for 10 hours; for water content after being left under humidity: humidity condition of 30%, after about 10 hours; for initial water content: raw material before exposure to humidity condition of 30%. The method, then: In the figure, X axis indicates the elapse time and Y axis the water content.
In case of the polymorphic crystal, however, the initial water content was 2.9% but increased to 4.2% after 10 hours due to absorption moisture from air.

“Also recorded” adds a separate entry of the source.

As for `C[N+](C)(C)CCOP(=O)(O)OC[C@H](O)CO` [Type II crystal, L-alpha-glyceryl phosphoryl choline], the “hygroscopicity (result in words)” value is given as “very low hygroscopicity”, the “water content after being left under humidity” value was 6.5% and the initial water content stood at 6.5%.
For the compound `C[N+](C)(C)CCOP(=O)(O)OC[C@H](O)CO` [Type I crystal, L-alpha-glyceryl phosphoryl choline], the “hygroscopicity (result in words)” value is recorded as “very low hygroscopicity”, the “water content after being left under humidity” value turned out to be 0.2% and the initial water content is 0.1%.
Taken in the same sequence, the figures for `C[N+](C)(C)CCOP(=O)(O)OC[C@H](O)CO` [polymorphic crystal, L-alpha-glyceryl phosphoryl choline, reference compound] were “relatively very hygroscopic; also recorded: high hygroscopicity”, 4.2% and 2.9%.

(Values after patent US8981141B1, “I-and II-type crystals of L-A-glyceryl phosphoryl choline, and method for preparing same” (Hanseochem Co., Ltd., priority 2011, dated 2015).)
